Reference: article PMC10411625, “Rationally designed stapled peptides allosterically inhibit PTBP1–RNA-binding” (Chemical Science, 2023)
Positions count from the first letter of the chain named. {FAM} = fluorescein (FAM) label

What was measured:
[1] = biological target: T1, PTBP1 RRM1-L151G (Homo sapiens, UniProt P26599, L151G); assay: Fluorescence polarization binding of FAM-RNA to PTBP1 RRM1-L151G
T1 construct: (G41-A163,; His tag; made in house; host or cells: E. coli BL21 DE3 RIL
Source text: (§1) To confirm the role of the α3-helix described by the Allain group we performed fluorescence polarization (FP) experiments with various PTBP1 protein constructs and two RNA sequences.[25] The first set of proteins contained either the single RRM1, RRM1 lacking the α3-helix (RRM1Δα3) or RRM1–L151G (Fig. 1A and C). The L151G mutation was previously described by the Allain group to break the fold of the helix and reduce RNA-binding 2.3 fold as measured by ITC.[25] As tracer in the FP experiments, we used a FAM-labelled short RNA (RNA-1) with a single PTBP1 binding site (UCUU) which can accommodate a single RRM (Fig. 1B). […] The L151G mutation reduced binding 3.6-fold which is somewhat higher than what was observed previously but in the same range. […] To see whether the effect of the helix was also present in larger constructs we measured the affinity of RRM1 and 2 combined (RRM12) as well as the RRM12–L151G mutant. […]
(§2) size exclusion chromatography (Superdex 75 16/60 or 26/60) with SEC buffer (50 mM Tris, 200 mM NaCl). Protein homogeneity was assessed by the size exclusion chromatogram and purity was checked by SDS-PAGE analysis to be >= 90%.
(§3) The gene encoding for SRSF1-RRM12 (1-195) was subcloned into pOPIN-His expression vector and expressed in E. coli BL21 (DE3). […]
(§4) Fluorescence polarization assay with PTBP1 […]

[2] = biological target: T2, PTBP1 RRM2 (MBP-RRM2, M177-D284) (Homo sapiens, UniProt P26599); assay: Fluorescence polarization binding of FAM-RNA to PTBP1 RRM2; settings: FP, 5 nM FAM-labelled RNA, 20 mM sodium phosphate pH 8.0, 50 mM NaCl, 0.001% Tween20, 20 °C, 30 min
T2 construct: (M177- D284); His tag; made in house; host or cells: E. coli BL21 DE3 RIL
T2 sequence (P26599 177-284): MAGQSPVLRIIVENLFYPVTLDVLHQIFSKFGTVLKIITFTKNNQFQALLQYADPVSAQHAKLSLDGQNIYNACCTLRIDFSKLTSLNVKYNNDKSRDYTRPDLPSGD
Source text: as §1, §2, §3, §4

[3] = biological target: T3, PTBP1 RRM1 (MBP-RRM1, G41-A163) (Homo sapiens, UniProt P26599); assay: Fluorescence polarization binding of FAM-RNA to PTBP1 RRM1; settings: FP, 5 nM FAM-labelled RNA, 20 mM sodium phosphate pH 8.0, 50 mM NaCl, 0.001% Tween20, 20 °C, 30 min
T3 construct: (G41-A163); His tag; made in house; host or cells: E. coli BL21 DE3 RIL
T3 sequence (P26599 41-163): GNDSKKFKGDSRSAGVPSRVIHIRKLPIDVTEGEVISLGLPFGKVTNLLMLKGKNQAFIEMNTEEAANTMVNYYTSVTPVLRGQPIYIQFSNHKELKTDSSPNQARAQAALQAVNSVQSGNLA
Source text: as §1, §2, §3, §4

[4] = biological target: T4, PTBP1 RRM12-L151G (Homo sapiens, UniProt P26599, L151G); assay: Fluorescence polarization binding of FAM-RNA to PTBP1 RRM12-L151G
T4 construct: (P57-V265); MBP (from pMAL vector); His tag; made in house; host or cells: E. coli BL21 DE3 RIL
T4 sequence (P26599 57-265 L151G): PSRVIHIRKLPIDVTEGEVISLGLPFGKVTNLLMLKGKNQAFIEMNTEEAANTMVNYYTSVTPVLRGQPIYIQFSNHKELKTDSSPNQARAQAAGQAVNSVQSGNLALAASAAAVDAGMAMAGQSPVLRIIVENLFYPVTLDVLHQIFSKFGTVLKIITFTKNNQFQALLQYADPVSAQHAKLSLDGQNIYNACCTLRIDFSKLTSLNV
Source text: as §1, §2, §3, §4

[5] = biological target: T5, PTBP1 RRM12 (P57-V265) (Homo sapiens, UniProt P26599); assay: Fluorescence polarization binding of FAM-RNA to PTBP1 RRM12; settings: FP, 5 nM FAM-labelled RNA, 20 mM sodium phosphate pH 8.0, 50 mM NaCl, 0.001% Tween20, 20 °C, 30 min
T5 construct: (P57-V265); MBP (from pMAL vector); His tag; made in house; host or cells: E. coli BL21 DE3 RIL
T5 sequence (P26599 57-265): T4 sequence (P26599 57-265 L151G) with G95L
Source text: as §1, §2, §3, §4

[6] = biological target: T6, PTBP1 RRM1Δα3 (RRM1 lacking the α3-helix) (Homo sapiens, UniProt P26599); assay: Fluorescence polarization binding of FAM-RNA to PTBP1 RRM1Δα3; settings: FP, 5 nM FAM-labelled RNA, 20 mM sodium phosphate pH 8.0, 50 mM NaCl, 0.001% Tween20, 20 °C, 30 min
T6 construct: (G41-S140); His tag (N); made in house; host or cells: E. coli BL21 DE3 RIL
Source text: as §1, §2, §3, §4

[7] = FP, 5 nM FAM-labelled RNA, 20 mM sodium phosphate pH 8.0, 50 mM NaCl, 0.001% Tween20, 20 °C, 30 min

T1 sequence (P26599 41-163 L151G): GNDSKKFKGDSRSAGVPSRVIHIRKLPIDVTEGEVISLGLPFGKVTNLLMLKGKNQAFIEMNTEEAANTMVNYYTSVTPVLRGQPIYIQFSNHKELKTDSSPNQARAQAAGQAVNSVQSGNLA

RNA-2: FAM-AUUUUUCCAUCUUUGUAUC, sequence of microRNA miR-29b-2, two poly(U) motifs (RNA, 5' {FAM}, backbone not given here)
Kd [1, 7]: 218 ± 11 nM | reduction of RNA affinity by L151G mutation, RRM1-L151G versus RRM1 ([1]; from FP KD values): 2.4 fold | Kd [2]: 721 ± 308 nM | Kd [3]: 90 ± 23 nM | Kd [4, 7]: 42 ± 1 nM | reduction of RNA affinity by L151G mutation, RRM12-L151G versus RRM12 ([4]; from FP KD values): 2.5 fold | Kd [5]: 17 ± 2 nM | Kd [6]: 6.45 ± 1.36 µM
